Laboratory results reported in patent publication US20250289810A1, “Compounds As NLRP3 Inflammasome Inhibitors And Their Use As Medicaments” (MAM-AGE S.R.L., priority 2022, published 2025).
Entries after “also recorded” stand apart in the source; their conditions may differ.

Key:
NLRC4 inflammasome = molecular target: T1, NLRC4 inflammasome (Mus musculus, UniProt Q3UP24); experiment: NLRC4 inflammasome activation in LPS-primed BMDM transfected with flagellin of S. typhimurium (IL-1β ELISA); format: cell-based; details: LPS 100 ng/ml 3 hours, compound 1 μm 30 minutes, flagellin 100 ng/ml 2 hours
T1 construct: endogenous in cells; host or cells: mouse BMDM, LPS-primed, transfected with S. typhimurium flagellin
T1 sequence (Q3UP24 whole entry): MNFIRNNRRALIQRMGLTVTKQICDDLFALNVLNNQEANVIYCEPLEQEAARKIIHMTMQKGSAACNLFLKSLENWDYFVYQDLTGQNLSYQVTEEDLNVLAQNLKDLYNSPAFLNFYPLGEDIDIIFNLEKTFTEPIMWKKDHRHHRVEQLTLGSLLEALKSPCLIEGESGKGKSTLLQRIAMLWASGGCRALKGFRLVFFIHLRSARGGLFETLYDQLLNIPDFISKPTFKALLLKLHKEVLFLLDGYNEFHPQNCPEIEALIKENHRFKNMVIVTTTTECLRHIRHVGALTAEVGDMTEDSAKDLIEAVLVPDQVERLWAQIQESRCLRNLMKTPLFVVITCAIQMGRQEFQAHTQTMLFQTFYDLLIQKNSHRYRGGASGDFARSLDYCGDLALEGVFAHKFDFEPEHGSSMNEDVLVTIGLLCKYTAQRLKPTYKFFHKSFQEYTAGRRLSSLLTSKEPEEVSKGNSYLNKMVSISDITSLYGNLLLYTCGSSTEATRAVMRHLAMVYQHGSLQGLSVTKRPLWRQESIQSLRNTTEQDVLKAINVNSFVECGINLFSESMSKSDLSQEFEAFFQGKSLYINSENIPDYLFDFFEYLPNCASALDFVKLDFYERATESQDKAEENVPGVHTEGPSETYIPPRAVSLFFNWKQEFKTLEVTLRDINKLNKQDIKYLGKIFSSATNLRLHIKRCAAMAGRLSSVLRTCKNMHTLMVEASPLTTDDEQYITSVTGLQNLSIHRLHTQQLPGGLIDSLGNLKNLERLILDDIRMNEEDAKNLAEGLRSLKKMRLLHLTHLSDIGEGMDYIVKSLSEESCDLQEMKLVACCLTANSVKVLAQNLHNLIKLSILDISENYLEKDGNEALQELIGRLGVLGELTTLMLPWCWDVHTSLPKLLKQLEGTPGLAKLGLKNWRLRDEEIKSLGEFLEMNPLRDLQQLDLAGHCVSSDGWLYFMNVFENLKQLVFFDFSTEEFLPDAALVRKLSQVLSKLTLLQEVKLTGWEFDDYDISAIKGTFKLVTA
Method: (§1) The selectivity of compound 4 as an inhibitor of NLRP3 was then evaluated with respect to NLRC4 and absent in melanoma 2 (AIM2) inflammasomes. For activation of NLRC4 inflammasome, BMDM were treated with LPS (100 ng/ml) for 3 hours. Subsequently, the culture medium was removed and replaced with a serum-free medium containing compound 4 (1 μm for 30 minutes), finally the cells were transfected with flagellin (100 ng/ml) by S. typhimurium for 2 hours. The supernatant was tested by ELISA. […] The effect of the same compounds was examined on the non-NLR AIM2 inflammasome by transfecting BMDM with the dsDNS analogue Poly (dA:dT).
The selectivity of compounds 6c and 10 of Formula (III) as inhibitors of NLRP3 was then evaluated with respect to NLRC4 inflammasome. For activation of NLRC4 inflammasome, BMDM were treated with LPS (100 ng/ml) for 3 hours. Subsequently the culture medium was removed and replaced with a serum-free medium containing […] (1 μm for 30 minutes), finally the cells were transfected with flagellin (100 ng/ml) by S. typhimurium for 2 hours. The supernatant was tested by ELISA.

AIM2 inflammasome = molecular target: T2, AIM2 inflammasome (Mus musculus, UniProt Q91VJ1); experiment: AIM2 inflammasome activation in BMDM transfected with Poly(dA:dT) (IL-1β secretion); format: cell-based
T2 construct: non-NLR AIM2 inflammasome by transfecting BMDM with the dsDNS analogue Poly (dA:dT); endogenous in cells; host or cells: mouse BMDM transfected with poly(dA:dT)
T2 sequence (Q91VJ1 1-354): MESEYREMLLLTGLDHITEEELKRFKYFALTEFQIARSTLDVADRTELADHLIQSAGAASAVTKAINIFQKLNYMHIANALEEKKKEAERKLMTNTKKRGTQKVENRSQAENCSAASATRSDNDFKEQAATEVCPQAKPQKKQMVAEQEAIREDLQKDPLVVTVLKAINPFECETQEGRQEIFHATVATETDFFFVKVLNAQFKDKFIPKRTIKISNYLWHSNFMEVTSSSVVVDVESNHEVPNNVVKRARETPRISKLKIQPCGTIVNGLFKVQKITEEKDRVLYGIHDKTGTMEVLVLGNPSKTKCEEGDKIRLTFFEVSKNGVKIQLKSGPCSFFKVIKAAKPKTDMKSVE
Method: as §1

THP-1 cells = experiment: RealTime-Glo MT Cell Viability assay on THP-1 cells; format: cell-based, human; details: 1 μM, 48 hours
Method: (§2) Cell viability was evaluated on THP-1 cells using realtime-Glo” MT Cell Viability Assay (Promega Italia, MI). Briefly, the cells were seeded in a 96 multiwell (10×10^4 cells/well), treated with the selected compound of Formula (II), and incubated for 48 hours. After treatment, the cells were incubated for 10 minutes in the incubator with the realtime-Glo” reagent following protocol. The luminescence was measured every 12 hours in the Glomax Multi Detection System Promega. The luminescence signal correlates with the number of metabolically active cells.
as §2, with “compound,” for “compound of Formula (II),”, “cells. The results represent the mean luminescence values (RLU)±SEM.” for “cells.”

[1] = test system: B16-F10cytLUC melanoma cells; experiment: Tumor growth of B16-F10cytLUC melanoma cells inoculated subcutaneously in C57BL/6 mice; format: in vivo; details: 25 mg/Kg intraperitoneal thrice weekly
Method: A total of 1×10^6 B16-F10 melanoma cells transfected with cytluc (B16-F10cytLUC) were subcutaneously inoculated into females, 6- to 8-week-old C57BL/6 mice. Tumor growth was monitored daily, and tumor volumes were measured every other day with calipers using the following equation: Volume=π/6×(a×b2), where “a” is the major diameter and “b” is the minor diameter. As soon as the mass was palpable, mice were randomly divided (5 mice per group) into the treatment groups and the control group, with 5 mice per group. For NLRP3 inflammasome inhibition, mice were intraperitoneal injected with selected molecules thrice weekly at 25 mg/Kg; control mice received equal volumes of DMSO.
Luciferase luminescence was followed by a total body luminometer (IVIS Lumina, Caliper-PerkinElmer).

B16-F10 melanoma cells = experiment: B16-F10 cancer cell proliferation (crystal violet growth curve); format: cell-based; details: 1 μM, 5 days
Method: B16-F10 cells were treated with selected inhibitors (1 μM) then were counted with a Burker chamber and plated in five sets of 4 wells of a 24-well plate. Starting from the following day (day 1) 1 set of wells (at days 2, 3, 4 and 5) was washed once with PBS, fixed in 4% formaldehyde solution for 15 min at room temperature, and then kept in PBS at 4° C. At day 5, all the wells were stained with crystal violet for 20 minutes, lysed with 10% acetic acid, then the absorbance was read at 595 nm.

B16-F10 cells = experiment: Transwell co-culture of peritoneal macrophages and B16-F10 cells (tumor microenvironment); format: cell-based; details: macrophages: LPS 1 μg/mL 2 hours, compound 1 μM 30 minutes, ATP 1 hour; 48 h
Method: Co-culture of peritoneal macrophages and B16-F10 cells were performed using Transwell chambers with 0.4-μm pores on the membranes (Corning, Corning, NY, USA). Peritoneal macrophages and B16-F10 cells were cultured in the lower and upper compartments of the Transwell chamber, respectively, for 48 h. Peritoneal macrophages were seeded at a density of 2×10^5 cells and treated with LPS (1 μg/mL) for 2 hours, then DMSO or compound 4 (1 μM) of Formula (II) for 30 minutes and finally stimulated with ATP for 1 hour. B16-F10 cells were seeded at a density of 2×10^3 cells each well.
Co-culture of peritoneal macrophages and B16-F10 cells were performed using Transwell chambers with 0.4-μm pores on the membranes (Corning, Corning, NY, USA). Peritoneal macrophages and B16-F10 cells were cultured in the lower and upper compartments of the Transwell chamber, respectively, for 48 h. Peritoneal macrophages were seeded at a density of 2×10^5 cells and treated with LPS (1 μg/mL) for 2 hours, then DMSO or compounds of Formula (III) (1 μM) for 30 minutes and finally stimulated with ATP for 1 hour. B16-F10 cells were seeded at a density of 2×10^3 cells each well.

[2] = preclinical studies; cited from earlier work
[3] = clinical development, phase II; cited from earlier work
chronic myeloid leukemia = details: cited from earlier work
[4] = test system: pancreatic adenocarcinoma; details: cited from earlier work
[5] = test system: head and neck squamous cell carcinoma; details: head and neck squamous cell carcinoma mouse model; cited from earlier work

Row | SMILES | Effect on activation of NLRC4 inflammasome triggered by flagellin S. typhimurium (NLRC4 inflammasome) | IL-1β secretion on AIM2 inflammasome activation (AIM2 inflammasome) | Cytotoxicity / cell viability of THP-1 cells (THP-1 cells) | Reduction of tumor mass vs vehicle (DMSO) [1] | Direct effect on cell proliferation of B16-F10 melanoma cells (B16-F10 melanoma cells) | Growth of B16-F10 cells co-cultured with treated peritoneal macrophages (B16-F10 cells) | Oral bioavailability [2] | Serum liver enzyme levels / hepatotoxicity [3] | Cell proliferation (chronic myeloid leukemia) | Cell proliferation [4] | Tumor growth [5]
1 | Nc1ccc(S(=O)(=O)N2Cc3ccccc3C[C@H]2C(=O)Nc2c3c(cc4c2CCC4)CCC3)cc1 [Compound 4 of Formula (II), (S)-2-((4-aminophenyl)sulfonyl)-N-(1,2,3,5,6,7-hexahydro-s-indacen-4-yl)-1,2,3,4-tetrahydroisoquinoline-3-carboxamide] | no effect | A reduction in the amount of IL-1β secretion was not observe | no cytotoxicity | about 50% | no direct effect | treated with the vehicle alone grew more than B16-F10 cells in contact with peritoneal macrophages treated with compound 4 |  |  |  |  | 
2 | CC(C)(O)c1coc(S(=O)(=O)NC(=O)Nc2c3c(cc4c2CCC4)CCC3)c1 [MCC950, N-((1,2,3,5,6,7-hexahydro-s-indacen-4-yl)carbamoyl)-4-(2-hydroxypropan-2-yl)furan-2-sulfonamide] |  |  |  |  |  |  | good oral bioavailability | hepatotoxicity problems; also recorded: elevation of serum liver enzyme levels | suppress cell proliferation | suppress cell proliferation | delay tumor growth
